Counter-ions that a name gives are not always drawn.
Columns and labels:
Hep G2 = test: MTT assay, Hep G2; format: cell-based, human; settings: hepatocellular carcinoma, 48 h incubation
Protocol: (§1) The human cancer cell lines HeLa (cervical adenocarcinoma), HCT116 (colorectal adenocarcinoma), A2780 (human ovarian adenocarcinoma), A2780cis (human ovarian adenocarcinoma cisplatin-resistant), Jurkat (acute T-lymphoblastic leukemia), and Hep G2 (hepatocellular carcinoma) were cultured in an RPMI 1640 growth medium (Biosera, Kansas City, MO, USA). The cancer cell lines MDA-MB-231 (triple-negative breast adenocarcinoma), A2058 (human melanoma), U87 (human glioblastoma), PATU 8902 (pancreas adenocarcinoma), and A549 (human lung adenocarcinoma) were cultured in a DMEM medium (Biosera, Kansas City, MO, USA). The media were supplemented with 10% fetal bovine serum (FBS) (Invitrogen, Carlsbad, CA, USA) and 1× HyClone™ Antibiotic/Antimycotic Solution (GE Healthcare, Piscataway, NJ, USA).
(§2) To evaluate the IC50 (half-maximal inhibitory concentration) and confirm the antiproliferative activity of the tested substances, we employed the colorimetric MTT assay (3-(4,5-dimethylthiazol-2-yl)-2,5-diphenyltetrazolium bromide) (Sigma-Aldrich Chemie, Steinheim, Germany). The cell lines were seeded in 96-well plates at a density of 5 × 10^3 to 10 × 10^3 cells per well. After 24 h, the tested substances, dissolved in the cultivation medium, were added to the cells at final concentrations of 5, 10, 20, and 50 µmol/L. The cells were then incubated for 48 h under standard cultivation conditions. Following the incubation period, MTT was added to each well. The MTT was metabolized by the cells into insoluble formazan crystals, which were subsequently dissolved by adding 100 µL of 10% SDS. After another 24 h, the absorbance was measured at a wavelength of 540 nm using the automated Cytation™ 3 Cell Imaging Multi-Mode Reader (Biotek, Winooski, VT, USA). The experiments were performed in at least three independent repetitions. IC50 values were calculated using a nonlinear regression method.

PATU = test: MTT assay, PATU 8902; format: cell-based, human; settings: pancreas adenocarcinoma, 48 h incubation
Protocol: as §1, §2

A549 = test: MTT assay, A549; format: cell-based, human; settings: lung adenocarcinoma, 48 h incubation
Protocol: as §1, §2

A2058 = test: MTT assay, A2058; format: cell-based; settings: human melanoma, 48 h incubation
Protocol: as §1, §2

HeLa = test: MTT assay, HeLa; format: cell-based, human; settings: cervical adenocarcinoma, 48 h incubation
Protocol: as §1, §2

HCT116 = test: MTT assay, HCT116; format: cell-based, human; settings: colorectal adenocarcinoma, 48 h incubation
Protocol: as §1, §2

Bj-5ta = test: MTT assay, BJ-5ta non-cancerous fibroblasts; format: cell-based, human; settings: non-cancerous dermal fibroblasts, 48 h incubation
Protocol: (§3) The non-cancerous cell line MCF-10A (human epithelial breast cells) was cultured in a DMEM F12 medium supplemented with 10% FBS (Invitrogen, Carlsbad, CA, USA), 1× HyClone™ Antibiotic/Antimycotic Solution (GE Healthcare, Piscataway, NJ, USA), insulin, hEGF, and hydrocortisone. The BJ-5ta cells (human dermal fibroblasts) were cultured in a DMEM-M199 4:1 medium mixture, supplemented with 10% FBS and hygromycin B (0.01 mg/mL). The cells were maintained under standard conditions with an atmosphere containing 5% CO2 at 37 °C. Cell viability, estimated by trypan blue exclusion, was consistently greater than 95% before each experiment.
as §2

A2780 = test: MTT assay, A2780; format: cell-based, human; settings: ovarian adenocarcinoma, 48 h incubation
Protocol: as §1, §2

MCF-10A = test: MTT assay, MCF-10A non-cancerous cells; format: cell-based, human; settings: non-cancerous epithelial breast cells, 48 h incubation
Protocol: as §3, §2

`COc1cc(/C=C2\SC(=O)N(Cc3cccc4cc5ccccc5nc34)C2=O)ccc1OCC(=O)Nc1cccc(C(F)(F)F)c1` [13f·HCl, 2-(4-{[(5Z)-3-[(Acridin-4-yl)methyl]-2,4-dioxo-1,3-thiazolidin-5-ylidene]methyl}-2-methoxyphenoxy)-N-[3-(trifluoromethyl)phenyl]acetamide hydrochloride] showed an IC50 (Hep G2) greater than 50 µM, an IC50 (PATU) of 43.7 ± 5.8 µM and an IC50 (A549) of 38.2 ± 7.35 µM. The IC50 (A2058) was greater than 50 µM, the IC50 (HeLa) was 12.3 ± 4.9 µM and the IC50 (HCT116) was 14.3 ± 3.2 µM. It also gave an IC50 (Bj-5ta) greater than 50 µM.
In the case of `COc1cc(NC(=O)COc2ccc(/C=C3\SC(=O)N(Cc4cccc5cc6ccccc6nc45)C3=O)cc2)cc(OC)c1` [8b·HCl, 2-(4-{[(5Z)-3-[(Acridin-4-yl)methyl]-2,4-dioxo-1,3-thiazolidin-5-ylidene]methyl}phenoxy)-N-(3,5-dimethoxyphenyl)acetamide hydrochloride], the IC50 (Hep G2) is reported as greater than 50 µM, the IC50 (PATU) is reported as greater than 50 µM and the IC50 (A549) is reported as greater than 50 µM. It also gave an IC50 (A2058) greater than 50 µM, an IC50 (HeLa) of 47.9 ± 1.4 µM and an IC50 (HCT116) of 32.4 ± 6.3 µM. The IC50 (A2780) was greater than 50 µM, the IC50 (MCF-10A) was greater than 50 µM and the IC50 (Bj-5ta) was greater than 50 µM.
Work on `O=C(COc1ccc(/C=C2\SC(=O)N(Cc3c4ccccc4nc4ccccc34)C2=O)cc1)Nc1cccc(C(F)(F)F)c1` [7f·2HCl, 2-(4-{[(5Z)-3-[(Acridin-9-yl)methyl]-2,4-dioxo-1,3-thiazolidin-5-ylidene]methyl}phenoxy)-N-[3-(trifluoromethyl)phenyl]acetamide dihydrochloride] yielded an IC50 (Hep G2) of 27.4 ± 5.9 µM, an IC50 (PATU) of 9.82 ± 1.92 µM and an IC50 (A549) of 34 ± 6.05 µM. For the same compound, the IC50 (A2058) was greater than 50 µM, the IC50 (HeLa) was 6.9 ± 0.2 µM and the IC50 (HCT116) was 15.2 ± 3.4 µM. For the same compound, the IC50 (A2780) was greater than 50 µM, the IC50 (MCF-10A) was 7.7 ± 1.5 µM and the IC50 (Bj-5ta) was 39.5 ± 6.5 µM.
With `O=C(COc1ccc(/C=C2\SC(=O)N(Cc3c4ccccc4nc4ccccc34)C2=O)cc1)Nc1cc(C(F)(F)F)cc(C(F)(F)F)c1` [7g·2HCl, 2-(4-{[(5Z)-3-[(Acridin-9-yl)methyl]-2,4-dioxo-1,3-thiazolidin-5-ylidene]methyl}phenoxy)-N-[3,5-bis(trifluoromethyl)phenyl]acetamide dihydrochloride] the IC50 (Hep G2) was greater than 50 µM, the IC50 (PATU) was greater than 50 µM and the IC50 (A549) was 32.4 ± 7.6 µM. For the same compound, the IC50 (A2058) was greater than 50 µM, the IC50 (HeLa) was 19.3 ± 4.6 µM and the IC50 (HCT116) was greater than 50 µM. The IC50 (A2780) was greater than 50 µM, the IC50 (MCF-10A) was 13.2 ± 3.2 µM and the IC50 (Bj-5ta) was greater than 50 µM.
With `COc1cc(/C=C2\SC(=O)N(Cc3cccc4cc5ccccc5nc34)C2=O)ccc1OCC(=O)Nc1ccccc1` [13a·HCl, 2-(4-{[(5Z)-3-[(Acridin-4-yl)methyl]-2,4-dioxo-1,3-thiazolidin-5-ylidene]methyl}-2-methoxyphenoxy)-N-phenylacetamide hydrochloride] the IC50 (Hep G2) was greater than 50 µM, the IC50 (PATU) was greater than 50 µM and the IC50 (A549) was greater than 50 µM. It also gave an IC50 (A2058) greater than 50 µM, an IC50 (HeLa) greater than 50 µM and an IC50 (HCT116) greater than 50 µM. It also gave an IC50 (Bj-5ta) greater than 50 µM.
Work on `O=C(COc1ccc(/C=C2\SC(=O)N(Cc3cccc4cc5ccccc5nc34)C2=O)cc1)Nc1ccc([N+](=O)[O-])cc1` [8d·HCl, 2-(4-{[(5Z)-3-[(Acridin-4-yl)methyl]-2,4-dioxo-1,3-thiazolidin-5-ylidene]methyl}phenoxy)-N-(4-nitrophenyl)acetamide hydrochloride] yielded an IC50 (Hep G2) greater than 50 µM, an IC50 (PATU) greater than 50 µM and an IC50 (A549) greater than 50 µM. For the same compound, the IC50 (A2058) was greater than 50 µM, the IC50 (HeLa) was greater than 50 µM and the IC50 (HCT116) was greater than 50 µM. For the same compound, the IC50 (Bj-5ta) was greater than 50 µM.
Work on `O=C(COc1ccc(/C=C2\SC(=O)N(Cc3cccc4cc5ccccc5nc34)C2=O)cc1)Nc1cccc(C(F)(F)F)c1` [8f·HCl, 2-(4-{[(5Z)-3-[(Acridin-4-yl)methyl]-2,4-dioxo-1,3-thiazolidin-5-ylidene]methyl}phenoxy)-N-[3-(trifluoromethyl)phenyl]acetamide hydrochloride] yielded an IC50 (Hep G2) greater than 50 µM, an IC50 (PATU) greater than 50 µM and an IC50 (A549) greater than 50 µM. The IC50 (A2058) was greater than 50 µM, the IC50 (HeLa) was greater than 50 µM and the IC50 (HCT116) was greater than 50 µM. The IC50 (Bj-5ta) was greater than 50 µM.
With `O=C(COc1ccc(/C=C2\SC(=O)N(Cc3cccc4cc5ccccc5nc34)C2=O)cc1)Nc1ccccc1C(F)(F)F` [8e·HCl, 2-(4-{[(5Z)-3-[(Acridin-4-yl)methyl]-2,4-dioxo-1,3-thiazolidin-5-ylidene]methyl}phenoxy)-N-[2-(trifluoromethyl)phenyl]acetamid hydrochloride] the IC50 (Hep G2) was greater than 50 µM, the IC50 (PATU) was greater than 50 µM and the IC50 (A549) was greater than 50 µM. The IC50 (A2058) was greater than 50 µM, the IC50 (HeLa) was greater than 50 µM and the IC50 (HCT116) was greater than 50 µM. The IC50 (Bj-5ta) was greater than 50 µM.
For `COc1cc(/C=C2\SC(=O)N(Cc3cccc4cc5ccccc5nc34)C2=O)ccc1OCC(=O)Nc1ccc([N+](=O)[O-])cc1` [13d·HCl, 2-(4-{[(5Z)-3-[(Acridin-4-yl)methyl]-2,4-dioxo-1,3-thiazolidin-5-ylidene]methyl}-2-methoxyphenoxy)-N-(4-nitrophenyl)acetamide hydrochloride], the IC50 (Hep G2) was greater than 50 µM, the IC50 (PATU) was greater than 50 µM and the IC50 (A549) was greater than 50 µM. It also gave an IC50 (A2058) greater than 50 µM, an IC50 (HeLa) greater than 50 µM and an IC50 (HCT116) greater than 50 µM. The IC50 (Bj-5ta) was greater than 50 µM.
Work on `O=C(COc1ccc(/C=C2\SC(=O)N(Cc3cccc4cc5ccccc5nc34)C2=O)cc1)Nc1ccccc1` [8a·HCl, 2-(4-{[(5Z)-3-[(Acridin-4-yl)methyl]-2,4-dioxo-1,3-thiazolidin-5-ylidene]methyl}phenoxy)-N-phenylacetamide hydrochloride] yielded an IC50 (Hep G2) greater than 50 µM, an IC50 (PATU) greater than 50 µM and an IC50 (A549) greater than 50 µM. It also gave an IC50 (A2058) greater than 50 µM, an IC50 (HeLa) of 42.6 ± 0.75 µM and an IC50 (HCT116) greater than 50 µM. It also gave an IC50 (Bj-5ta) greater than 50 µM.
`COc1cc(NC(=O)COc2ccc(/C=C3\SC(=O)N(Cc4cccc5cc6ccccc6nc45)C3=O)cc2OC)cc(OC)c1` [13b·HCl, 2-(4-{[(5Z)-3-[(Acridin-4-yl)methyl]-2,4-dioxo-1,3-thiazolidin-5-ylidene]methyl}-2-methoxyphenoxy)-N-(3,5-dimethoxyphenyl)acetamide hydrochloride] showed an IC50 (Hep G2) greater than 50 µM, an IC50 (PATU) greater than 50 µM and an IC50 (A549) greater than 50 µM. The IC50 (A2058) was greater than 50 µM, the IC50 (HeLa) was 45.5 ± 2.9 µM and the IC50 (HCT116) was greater than 50 µM. For the same compound, the IC50 (Bj-5ta) was greater than 50 µM.
`COc1cc(/C=C2\SC(=O)N(Cc3cccc4cc5ccccc5nc34)C2=O)ccc1OCC(=O)Nc1cc(C(F)(F)F)cc(C(F)(F)F)c1` [13g·HCl, 2-(4-{[(5Z)-3-[(Acridin-4-yl)methyl]-2,4-dioxo-1,3-thiazolidin-5-ylidene]methyl}-2-methoxyphenoxy)-N-[3,5-bis(trifluoromethyl)phenyl]acetamide hydrochloride] was tested, and the IC50 (Hep G2) was greater than 50 µM, the IC50 (PATU) was greater than 50 µM and the IC50 (A549) was greater than 50 µM. For the same compound, the IC50 (A2058) was greater than 50 µM, the IC50 (HeLa) was 34.7 ± 6.4 µM and the IC50 (HCT116) was greater than 50 µM. The IC50 (Bj-5ta) was greater than 50 µM.
`COc1cc(/C=C2\SC(=O)N(Cc3cccc4cc5ccccc5nc34)C2=O)ccc1OCC(=O)Nc1ccccc1C(F)(F)F` [13e·HCl, 2-(4-{[(5Z)-3-[(Acridin-4-yl)methyl]-2,4-dioxo-1,3-thiazolidin-5-ylidene]methyl}-2-methoxyphenoxy)-N-[2-(trifluoromethyl)phenyl]acetamide hydrochloride] showed an IC50 (Hep G2) greater than 50 µM, an IC50 (PATU) of 39.8 ± 7.1 µM and an IC50 (A549) of 42.8 ± 5.4 µM. It also gave an IC50 (A2058) greater than 50 µM, an IC50 (HeLa) of 13.7 ± 4.5 µM and an IC50 (HCT116) of 14.5 ± 3.4 µM. For the same compound, the IC50 (Bj-5ta) was greater than 50 µM.

Source: publication PMC11280325, “Design, Synthesis, and Characterization of Novel Thiazolidine-2,4-Dione-Acridine Hybrids as Antitumor Agents” (Molecules, 2024)
